Reference: ChEMBL document CHEMBL1201862, “PubChem BioAssay data set” (2004)
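Tested at 5 concentrations; 48 h exposure; 96-well plates; endpoints linearly interpolated, else capped at highest concentration. Abbreviation: GI50, concentration required for 50% inhibition of growth.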 Active and inactive are the calls of the source. No stated cut-off is given here; in the data, active = GI50 up to about 1.1 µM and inactive = higher. Positions of bridges follow the written chain, without caps; N, C: chain ends. Non-standard residues stand in square brackets, D forms with d. Residues, ends and D or L forms follow the SMILES beside them. Aib = CC(C)(N)C(=O)O; βAla = NCCC(=O)O

Key:
Assay in all cases: NCI anticancer screen, dose series, 48 h
SK-MEL-28 = tested on: SK-MEL-28
UO-31 = tested on: UO-31
K562 = tested on: K562
786-0 = tested on: 786-0
MOLT-4 = tested on: MOLT-4
T47D = tested on: T47D
HOP-92 = tested on: HOP-92
OVCAR-4 = tested on: OVCAR-4
M14 = tested on: M14
PC-3 = tested on: PC-3
SF-295 = tested on: SF-295
NCI/ADR-RES = tested on: NCI/ADR-RES
SNB-75 = tested on: SNB-75
SNB-19 = tested on: SNB-19
CCRF-CEM = tested on: CCRF-CEM
OVCAR-3 = tested on: OVCAR-3
SF-539 = tested on: SF-539
DU-145 = tested on: DU-145
IGROV-1 = tested on: IGROV-1
Malme-3M = tested on: Malme-3M

SMILES	GI50 (SK-MEL-28)	GI50 (UO-31)	GI50 (K562)	GI50 (786-0)	GI50 (MOLT-4)	GI50 (T47D)	GI50 (HOP-92)	GI50 (OVCAR-4)	GI50 (M14)	GI50 (PC-3)	GI50 (SF-295)	GI50 (NCI/ADR-RES)	GI50 (SNB-75)	GI50 (SNB-19)	GI50 (CCRF-CEM)	GI50 (OVCAR-3)	GI50 (SF-539)	GI50 (DU-145)	GI50 (IGROV-1)	GI50 (Malme-3M)
CC(C)(C)c1c2c(c(C(C)(C)C)c3c1OCN(Cc1ccccc1)C3)OCN(Cc1ccccc1)C2	29.6 µM (inactive)	17.2 µM (inactive)	17.6 µM (inactive)	12.9 µM (inactive)	18.2 µM (inactive)	31.7 µM (inactive)	12 µM (inactive)	44.7 µM (inactive)	14.2 µM (inactive)	16.6 µM (inactive)	15.2 µM (inactive)	19.6 µM (inactive)	37.2 µM (inactive)	11 µM (inactive)	28 µM (inactive)	14 µM (inactive)	16 µM (inactive)	22.6 µM (inactive)	21 µM (inactive)	18.7 µM (inactive)
C=CCC1(Sc2ccccn2)Sc2ccc3ccccc3c2-c2c(ccc3ccccc23)S1	> 100 µM (inactive)	> 100 µM (inactive)	> 100 µM (inactive)	> 100 µM (inactive)	> 100 µM (inactive)	> 100 µM (inactive)	> 100 µM (inactive)	> 100 µM (inactive)	> 100 µM (inactive)	> 100 µM (inactive)	> 100 µM (inactive)	> 100 µM (inactive)	55.7 µM (inactive)	> 100 µM (inactive)	> 100 µM (inactive)	> 100 µM (inactive)	> 100 µM (inactive)	> 100 µM (inactive)	> 100 µM (inactive)	> 100 µM (inactive)
CCC1([N+](=O)[O-])CC2C=CC1C2 (stereo not given)	> 100 µM (inactive)	> 100 µM (inactive)	> 100 µM (inactive)	> 100 µM (inactive)	> 100 µM (inactive)	> 100 µM (inactive)	62.7 µM (inactive)	> 100 µM (inactive)	> 100 µM (inactive)	> 100 µM (inactive)	> 100 µM (inactive)	> 100 µM (inactive)	> 100 µM (inactive)	> 100 µM (inactive)	> 100 µM (inactive)	> 100 µM (inactive)	> 100 µM (inactive)	> 100 µM (inactive)	> 100 µM (inactive)	> 100 µM (inactive)
CC(C)NC(=O)OCCN=C1c2ccccc2C(Br)C(Br)c2ccccc21 (stereo not given)	13.2 µM (inactive)	4.21 µM (inactive)	1.06 µM (active)	4.14 µM (inactive)	6.19 µM (inactive)	3.25 µM (inactive)	5.3 µM (inactive)	6.93 µM (inactive)	8.65 µM (inactive)	11.6 µM (inactive)	19 µM (inactive)	16 µM (inactive)	8.04 µM (inactive)	16.1 µM (inactive)	0.46 µM (active)	12.1 µM (inactive)	4.02 µM (inactive)	6.98 µM (inactive)	2.66 µM (inactive)	5.4 µM (inactive)
NC1=CN(Cc2ccccc2)C2=N/C(=C\c3ccccc3)C(=O)N12	> 100 µM (inactive)	65.9 µM (inactive)	48.8 µM (inactive)	> 100 µM (inactive)	97.3 µM (inactive)	> 100 µM (inactive)	> 100 µM (inactive)	38.2 µM (inactive)	> 100 µM (inactive)	> 100 µM (inactive)	> 100 µM (inactive)	> 100 µM (inactive)	> 100 µM (inactive)	> 100 µM (inactive)	50 µM (inactive)	> 100 µM (inactive)	> 100 µM (inactive)	> 100 µM (inactive)	> 100 µM (inactive)	> 100 µM (inactive)
C/C(=N/c1[nH]c(=O)cc2c1C(=O)CC2)N(C)C	> 200 µM (inactive)	> 200 µM (inactive)	> 200 µM (inactive)	> 200 µM (inactive)	> 200 µM (inactive)	> 200 µM (inactive)	> 200 µM (inactive)	> 200 µM (inactive)	> 200 µM (inactive)	> 200 µM (inactive)	> 200 µM (inactive)	> 200 µM (inactive)	> 200 µM (inactive)	> 200 µM (inactive)	> 200 µM (inactive)	> 200 µM (inactive)	> 200 µM (inactive)	> 200 µM (inactive)	> 200 µM (inactive)	> 200 µM (inactive)
COc1ccc(CCNC2=CC(=O)c3ncccc3C2=O)cc1OC	1.47 µM (inactive)	0.931 µM (active)	2.24 µM (inactive)	3.31 µM (inactive)	5.05 µM (inactive)	5.09 µM (inactive)	8.95 µM (inactive)	2.47 µM (inactive)	1.15 µM (inactive)	2.54 µM (inactive)	0.794 µM (active)	2.28 µM (inactive)	0.748 µM (active)	1.86 µM (inactive)	5.9 µM (inactive)	0.514 µM (active)	2.07 µM (inactive)	1.67 µM (inactive)	1.55 µM (inactive)	0.682 µM (active)
CS/C(=N\S(=O)(=O)c1ccc(Cl)cc1)NCCCCN/C(=N/S(=O)(=O)c1ccc(Cl)cc1)SC	95.3 µM (inactive)	> 100 µM (inactive)	> 100 µM (inactive)	44.5 µM (inactive)	> 10 µM (inactive)	> 100 µM (inactive)	60.1 µM (inactive)	> 100 µM (inactive)	> 100 µM (inactive)	> 100 µM (inactive)	> 100 µM (inactive)	> 100 µM (inactive)	> 10 µM (inactive)	> 100 µM (inactive)	> 100 µM (inactive)	> 100 µM (inactive)	> 100 µM (inactive)	> 100 µM (inactive)	83 µM (inactive)	> 100 µM (inactive)
CCOC(=O)c1cccc(/N=N/c2ncc(/C=C/C(=O)OC)[nH]2)c1	27 µM (inactive)	18 µM (inactive)	20.9 µM (inactive)	14.6 µM (inactive)	6.97 µM (inactive)	29.3 µM (inactive)	32.1 µM (inactive)	17.9 µM (inactive)	26 µM (inactive)	24.3 µM (inactive)	20.4 µM (inactive)	22 µM (inactive)	26.4 µM (inactive)	34.4 µM (inactive)	6 µM (inactive)	23.3 µM (inactive)	21.5 µM (inactive)	19.1 µM (inactive)	20.6 µM (inactive)	22.6 µM (inactive)
CS/C(=N\C#N)NC1CC(n2cc(C)c(=O)[nH]c2=O)OC1CO (stereo not given)	> 100 µM (inactive)	> 100 µM (inactive)	> 100 µM (inactive)	> 100 µM (inactive)	> 100 µM (inactive)	> 100 µM (inactive)	> 100 µM (inactive)	> 100 µM (inactive)	> 100 µM (inactive)	> 100 µM (inactive)	> 100 µM (inactive)	> 100 µM (inactive)	> 100 µM (inactive)	> 100 µM (inactive)	> 100 µM (inactive)	> 100 µM (inactive)	> 100 µM (inactive)	> 100 µM (inactive)	> 100 µM (inactive)	> 100 µM (inactive)
O=C([O-])C(O)C(O)C(O)C(O)C(=O)O.[K+] (stereo not given)	> 100 µM (inactive)	> 100 µM (inactive)	> 100 µM (inactive)	> 100 µM (inactive)	> 100 µM (inactive)	> 100 µM (inactive)	> 100 µM (inactive)	> 100 µM (inactive)	> 100 µM (inactive)	> 100 µM (inactive)	> 100 µM (inactive)	> 100 µM (inactive)	> 100 µM (inactive)	> 100 µM (inactive)	> 100 µM (inactive)	> 100 µM (inactive)	> 100 µM (inactive)	> 100 µM (inactive)	> 100 µM (inactive)	> 100 µM (inactive)
O=C1/C(=C/c2ccc([N+](=O)[O-])cc2)CNC/C1=C\c1ccc([N+](=O)[O-])cc1	1.82 µM (inactive)	6.17 µM (inactive)	0.188 µM (active)	1.13 µM (inactive)	2.22 µM (inactive)	18.7 µM (inactive)	22.1 µM (inactive)	3.63 µM (inactive)	12.5 µM (inactive)	6.7 µM (inactive)	10.2 µM (inactive)	5.09 µM (inactive)	2.6 µM (inactive)	2.27 µM (inactive)	0.229 µM (active)	2.45 µM (inactive)	2.09 µM (inactive)	10.8 µM (inactive)	1.84 µM (inactive)	46.5 µM (inactive)
CC1(C)NC(=O)C(NC(=O)C(N)CC(=O)O)CCCCNC(=O)CCNC1=O (stereo not given) (H-DK[Aib][βAla]; lactam 2-C; configuration not given here)	> 100 µM (inactive)	> 100 µM (inactive)	> 100 µM (inactive)	> 100 µM (inactive)	> 100 µM (inactive)	> 100 µM (inactive)	> 100 µM (inactive)	> 100 µM (inactive)	> 100 µM (inactive)	> 100 µM (inactive)	> 100 µM (inactive)	> 100 µM (inactive)	> 100 µM (inactive)	> 100 µM (inactive)	> 100 µM (inactive)	> 100 µM (inactive)	> 100 µM (inactive)	> 100 µM (inactive)	> 100 µM (inactive)	> 100 µM (inactive)
C[C@@H]1C[C@@H]2OC(=O)[C@]3(C)[C@H]2[C@@H](OC3(C)O)[C@]2(C)C(=O)C=C[C@@H]12 (stereo not given in full) [TENULIN]	18.3 µM (inactive)	40.8 µM (inactive)	0.0543 µM (active)	31.1 µM (inactive)	16.4 µM (inactive)	19 µM (inactive)	17.5 µM (inactive)	10.8 µM (inactive)	20.6 µM (inactive)	87.9 µM (inactive)	> 100 µM (inactive)	> 100 µM (inactive)	> 100 µM (inactive)	41.4 µM (inactive)	4.68 µM (inactive)	20.6 µM (inactive)	32.1 µM (inactive)	39.6 µM (inactive)	> 10 µM (inactive)	13.6 µM (inactive)
